Measured values reported in paper PMC8729770, “In Vitro Evaluation of Antimicrobial Peptides from the Black Soldier Fly (Hermetia Illucens) against a Selection of Human Pathogens” (Microbiology Spectrum, 2022).
Like-named read-outs stand apart in the source and are kept apart here. Ends that are not written are not given here.

Legend:
B. cenocepacia LMG 16656 = conditions: for IC50: read-out: IC50 B. cenocepacia LMG 16656, starting at 32 μM, 10^5 CFU/mL, 48 h, 37°C, resazurin; for MIC B. cenocepacia LMG 16656: visual
P. aeruginosa ATCC 15442 = conditions: ATCC 15442, 16 h
K. pneumoniae ATCC 13883 = conditions: ATCC 13883, 16 h
E. coli ATCC 8739 [1] = conditions: ATCC 8739, 16 h
[2] = test system: M. tuberculosis ATCC 25177 (H37Ra); conditions: for IC50: read-out: IC50 M. tuberculosis ATCC 25177 (H37Ra), starting at 32 μM, 5×10^5 CFU/mL, 7 days, 37°C, resazurin; for MIC M. tuberculosis ATCC 25177 (H37Ra): visual
E. coli ATCC 8739 [3] = assay type: cell-based, Escherichia coli
Protocol: (§1) To detect antimicrobial activity of the BSF AMPs, the peptide library underwent screening against a panel of microorganisms, consisting of S. aureus ATCC 6538, E. coli ATCC 8739, P. aeruginosa ATCC 9027, C. albicans B59630, and A. fumigatus B42928. Serial dilutions of the peptides were prepared from the DMSO stock solutions in sterile demineralized water in 96-well plates using an automated liquid-handling workstation (Beckman Coulter Biomek 3000) in end volumes of 10 μL. The final in-plate concentration of DMSO was <1%. Peptide concentrations ranged from 64 μM to 0.25 μM for the first evaluation, and from 32 μM to 0.016 μM for the independent repeat. As references, doxycycline (Sigma-Aldrich; S. aureus, E. coli, P. aeruginosa), flucytosine (Sigma-Aldrich; C. albicans), and econazole (Sigma-Aldrich; A. fumigatus) were used. Suspensions of a starting inoculum of 5 × 10^3 CFU/mL (E. coli, S. aureus, C. albicans, A. fumigatus) and 5 × 10^4 CFU/mL (P. aeruginosa) were prepared in MHB (bacterial species) or RPMI medium (fungal species) and 190 μL was added to the 96-well plates. Plates were incubated for 16 h (E. coli, S. aureus, P. aeruginosa), 24 h (C. albicans), or 48 h (A. fumigatus) at 37°C. After incubation, read-out of the antimicrobial activity was performed using a resazurin assay. Then, 20 μL of a 0.01% (wt/vol) resazurin (Sigma-Aldrich) solution was added to each well and plates were incubated for 15 min (S. aureus), 30 min (E. coli), 45 min (P. aeruginosa), 4 h (C. albicans), or 17 h (A. fumigatus) to allow resazurin reduction to take place. Fluorescence was read using a microplate reader (Telix) at λexcitation = 550 nm and λemission = 590. […] MIC values were determined visually. Medium in the wells with no visual growth was plated on MHA to detect the MBC, defined as ≥3 log reduction compared with the growth control.

P. aeruginosa ATCC 9027 = assay type: cell-based, Pseudomonas aeruginosa; conditions: determined visually, 16 h
Protocol: as §1

[4] = Cytotoxicity screening of the peptide library; assay type: cell-based, human; conditions: human; both repeats; read-out: IC50 cell toxicity MRC5-SV2
Protocol: To determine early signs of peptide toxicity, the library was tested against the MRC5-SV2 cell line of human, embryonic lung fibroblasts (Sigma-Aldrich). Peptides were serially diluted in 96-well plates as described earlier at concentrations ranging from 64 μM to 0.25 μM for the first screening, and from 32 μM to 0.016 μM for the independent repeat. Tamoxifen (Sigma-Aldrich) was included as a reference compound. After preparation of the test plates, cell suspension (190 μL) of 1.5 × 10^5 cells/mL in complete minimum essential medium (Gibco) was added to the peptides. Plates were incubated for 72 h at 37°C in a 5% CO2 incubator (Binder). Afterwards, 50 μL of a 0.01% (wt/vol) resazurin (Sigma-Aldrich) solution was added to the wells to detect cell viability.

S. aureus ATCC 6538 = assay type: cell-based, Staphylococcus aureus; conditions: determined visually, 16 h
Protocol: as §1

[5] = test system: preformed P. aeruginosa ATCC 15442 biofilm; assay: Biofilm eradication (postexposure); assay type: cell-based, Pseudomonas aeruginosa; conditions: at 64 μM and 128 μM; resazurin
Protocol: After 16 h of incubation at 37°C and shaking at 110 rpm (New Brunswick Innova 4300), a resazurin assay was used as described by Gilbert-Girard et al. to determine the viability of the bacterial cells in the biofilm ([79]). After incubation, the growth medium was removed from the well plates and the bacterial biofilms were washed once with PBS to remove remaining planktonic cells. […] The fluorescence of the wells was measured at λexcitation = 550 nm and λemission = 590 using a microplate reader (Promega). Afterwards, a crystal violet staining was applied to determine the biomass of the biofilms ([79]). The resazurin solution was removed from the well plates and 200 μL of 100% ethanol (VWR Chemicals) was added to fix the biofilms. After 15 min of incubation, the ethanol was discarded from the wells and the plates were left to air dry for 30 min. […] The staining solution was removed after 5 min and the biofilms were washed with PBS. After air-drying for 10 min, the crystal violet stain was solubilized in 200 μL of 100% ethanol. […] The experiment was carried out three times. Polymyxin B sulfate (Sigma-Aldrich) was included as a reference. […] The next day, bacterial viability and biomass were determined with a resazurin assay and crystal violet assay as described earlier. […]

SWWKKVFKPVEKLGQRVRDATIQGIGIAQQGANVLATVRGGPPQ-NH2 [Hill-Cec1]
IC50 (B. cenocepacia LMG 16656; repeat 1): > 32 µM | IC50 (B. cenocepacia LMG 16656; repeat 2): > 32 µM | MIC B. cenocepacia LMG 16656 (B. cenocepacia LMG 16656; repeat 1): >32 µM | MIC B. cenocepacia LMG 16656 (B. cenocepacia LMG 16656; repeat 2): >32 µM | MIC P. aeruginosa ATCC 15442 (P. aeruginosa ATCC 15442): 1 µM | MIC K. pneumoniae (K. pneumoniae ATCC 13883): 0.25 to 0.5 µM | IC50 (E. coli ATCC 8739 [1]): 0.15 µM | IC50 ([2]; repeat 1): > 32 µM | IC50 ([2]; repeat 2): > 32 µM | MIC M. tuberculosis ATCC 25177 (H37Ra) ([2]; repeat 1): >32 µM | MIC M. tuberculosis ATCC 25177 (H37Ra) ([2]; repeat 2): >32 µM | MIC E. coli ATCC 8739 (E. coli ATCC 8739 [3]; ATCC 8739, 16 h): 0.25 µM

FNNLPICVEGLAGDIGSILLGVESDIGALAGAIANLALIAGECAAQGEAGAAICA-NH2 (cysteines drawn unpaired) [Hill-Stom1]
MIC P. aeruginosa ATCC 9027 (P. aeruginosa ATCC 9027; repeat 1, 64-0.25 μM): > 32.00 µM | MIC P. aeruginosa ATCC 9027 (P. aeruginosa ATCC 9027; repeat 2, 32-0.016 μM): > 64.00 µM | IC50 [4]: < 32 µM | MIC S. aureus ATCC 6538 (S. aureus ATCC 6538; repeat 1, 64-0.25 μM): > 64.00 µM | MIC S. aureus ATCC 6538 (S. aureus ATCC 6538; repeat 2, 32-0.016 μM): > 32.00 µM | MIC E. coli ATCC 8739 (E. coli ATCC 8739 [3]; repeat 1, 64-0.25 μM, determined visually, 16 h): > 32.00 µM | MIC E. coli ATCC 8739 (E. coli ATCC 8739 [3]; repeat 2, 32-0.016 μM, determined visually, 16 h): > 64.00 µM

polymyxin B [reference compound]
reduction in viability of preformed biofilm [5]: over 70%
